Consider 27 molecules from ChEMBL document CHEMBL1134981, “Pyrrolidine and piperidine analogues of SC-57461A as potent, orally active inhibitors of leukotriene A(4) hydrolase” (Bioorg Med Chem Lett, 2002).

Experiment [1] has as its system Mus musculus. Briefly: Ex vivo inhibition of LTB4 production in mouse whole blood at 10 mg/kg. In kind it is functional.
In experiment [2] the target is T1, Leukotriene A-4 hydrolase (Homo sapiens, UniProt P09960).
T1 sequence (P09960 whole entry): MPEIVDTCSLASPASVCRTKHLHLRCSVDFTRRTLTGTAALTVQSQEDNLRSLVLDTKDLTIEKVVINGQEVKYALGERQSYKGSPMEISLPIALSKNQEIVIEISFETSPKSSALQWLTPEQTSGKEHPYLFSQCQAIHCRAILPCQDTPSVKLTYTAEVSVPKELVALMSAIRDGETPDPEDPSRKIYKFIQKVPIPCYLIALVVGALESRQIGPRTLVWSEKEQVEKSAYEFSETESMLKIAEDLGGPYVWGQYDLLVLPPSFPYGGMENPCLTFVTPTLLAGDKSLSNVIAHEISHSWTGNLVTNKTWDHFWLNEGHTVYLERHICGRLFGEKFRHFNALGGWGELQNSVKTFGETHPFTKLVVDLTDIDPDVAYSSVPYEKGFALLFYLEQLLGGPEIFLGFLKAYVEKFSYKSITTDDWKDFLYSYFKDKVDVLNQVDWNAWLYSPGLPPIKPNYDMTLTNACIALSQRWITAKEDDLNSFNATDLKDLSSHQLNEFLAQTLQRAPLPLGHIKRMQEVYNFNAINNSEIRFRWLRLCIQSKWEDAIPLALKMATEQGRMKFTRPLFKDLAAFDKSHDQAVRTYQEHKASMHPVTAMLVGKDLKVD
Briefly: Inhibition of leukotriene A4 hydrolase in human recombinant assay.

The species entered for experiment [3] is Mus musculus. Briefly: Oral potency for Ex vivo inhibition of LTB4 production in mouse whole blood. The format is functional.
Another experiment is filed under the species Homo sapiens. Briefly: Inhibition of leukotriene B4 production in human whole blood. The format is functional.
The species named for experiment [4] is Mus musculus. Briefly: Ex vivo inhibition of LTB4 production in mouse whole blood. The format is functional.
The test system of the next experiment is Rhesus monkey. Briefly: The compound showed excellent potency when dosed orally, inhibiting the production of Leukotriene B4. The following applies: Macaca mulatta, po. The format is functional, Cercopithecidae.
Experiment [5] has as its system Rattus norvegicus. Briefly: The compound was orally efficacious in rat peritoneal Leukotriene B4 production. The format is functional. The conditions noted are these: po.
The species named for experiment [6] is Rattus norvegicus. Briefly: The compound was tested for oral efficacy in rat reversed passive dermal Arthus model; 3-10. The format is functional.

Usually inhibition in vivo stands for the percentage by which the read-out fell short of the control. As a reminder, the IC50 is the midpoint of a concentration-inhibition curve. As for `NC(=O)C1CCN(CCOc2ccc(Cc3ccccc3)cc2)CC1`, the inhibition in vivo at 10 mg/kg with Mus musculus [1] (Mus musculus, Blood) is 95%. The IC50 in experiment [2] came out at 0.13 µM; in the experiment filed under Homo sapiens it was 0.64 µM. The same molecule registered an ED90 in the experiment listed under Mus musculus [3] of 3 mg/kg.
Consider `COC(=O)CC1CCN(CCOc2ccc(Cc3ccccc3)cc2)C1` (configuration not stated), for which the inhibition in vivo at 10 mg/kg in the experiment with Mus musculus [1] (Mus musculus, Blood) turned out to be 75%. Moreover, the ED90 in the experiment filed under Mus musculus [3] was 10 mg/kg. This molecule gave an IC50 in the experiment filed under Homo sapiens of 0.24 µM.
In turn, `COC(=O)[C@@H]1CCCN1CCOc1ccc(Cc2ccccc2)cc1` registered an inhibition in vivo at 10 mg/kg with Mus musculus [1] (Mus musculus, Blood) of 0%. Further, the IC50 in the experiment filed under Homo sapiens came to 1.86 µM.
Usually ED50 stands for the midpoint of the dose-response relation. `CCOC(=O)C1CCN(CCOc2ccc(Cc3ccccc3)cc2)CC1`: the IC50 in experiment [2] was found to be 1.8 µM; in the experiment listed under Homo sapiens it was 0.82 µM. Moreover, the ED90 in the experiment filed under Mus musculus [4] was 3 mg/kg; with Rhesus monkey, less than 10 mg/kg; with Rattus norvegicus [5], 30 mg/kg; in the experiment listed under Rattus norvegicus [6], 3 mg/kg. Besides, the ED50 with Rattus norvegicus [5] amounted to 3 mg/kg.
Turning to `NC(=O)N1CCN(CCOc2ccc(Cc3ccccc3)cc2)CC1`, the midpoint of inhibition in the experiment listed under Homo sapiens, the IC50, lay at 2.4 µM.
As for `NC(=O)NC1CCN(CCOc2ccc(Cc3ccccc3)cc2)C1` (configuration not stated), the IC50 in the experiment filed under Homo sapiens was determined as 0.35 µM.
As to `CCOC(=O)C1CCCN(CCOc2ccc(Cc3ccccc3)cc2)C1` (configuration not stated), the IC50 in experiment [2] is more than 3 µM; in the experiment filed under Homo sapiens it was 1.65 µM.
Consider `c1ccc(Cc2ccc(OCCN3CCCC3)cc2)cc1`, for which half-maximal inhibition in the experiment filed under Homo sapiens (IC50) was put at 0.12 µM.
In the experiment on Mus musculus [1] (Mus musculus, Blood), `COC(=O)CC1CC2CC1CN2CCOc1ccc(Cc2ccccc2)cc1` (stereo in doubt; 26) yielded an inhibition in vivo at 10 mg/kg of 80%. This molecule returned an ED90 in the experiment filed under Mus musculus [3] not below 10 mg/kg.
Molecule `CC(=O)NC1CCN(CCOc2ccc(Cc3ccccc3)cc2)CC1` showed an IC50 in the experiment filed under Homo sapiens of 0.18 µM.
In the experiment on Mus musculus [1] (Mus musculus, Blood), `NC(=O)CC1CCN(CCOc2ccc(Cc3ccccc3)cc2)C1` (configuration not stated) displayed an inhibition in vivo at 10 mg/kg of 4%. This molecule also came in with an IC50 in the experiment filed under Homo sapiens of 0.4 µM.
Molecule `COC(=O)C1CCN(CCOc2ccc(Cc3ccccc3)cc2)C1` (configuration not stated) showed an IC50 in the experiment listed under Homo sapiens of 0.23 µM.
As to `CN(CCCOc1ccc(Cc2ccccc2)cc1)CCC(=O)O`, in the experiment with Mus musculus [1] (Mus musculus, Blood), the inhibition in vivo at 10 mg/kg was more than 98%. Moreover, the ED90 in the experiment filed under Mus musculus [3] stood at 1 mg/kg. The molecule further yielded an IC50 in the experiment filed under Homo sapiens of 0.049 µM.
On to `COC(=O)C1CC2CC1CN2CCOc1ccc(Cc2ccccc2)cc1` (configuration not stated), for which the inhibition in vivo at 10 mg/kg in the experiment on Mus musculus [1] (Mus musculus, Blood) stood at 50%. Also, the IC50 in experiment [2] came out at 0.047 µM; in the experiment listed under Homo sapiens it was 0.2 µM.
The molecule `CC(=O)NC1CCN(CCOc2ccc(Cc3ccccc3)cc2)C1` (configuration not stated) yielded an inhibition in vivo at 10 mg/kg in the experiment with Mus musculus [1] (Mus musculus, Blood) of 22%. Also, the IC50 in the experiment listed under Homo sapiens came to 0.42 µM.
Take `NC(=O)NC1CCN(CCOc2ccc(Cc3ccccc3)cc2)CC1`: 0.44 µM corresponded to half-maximal inhibition in the experiment filed under Homo sapiens (IC50).
With `CCOC(=O)CNC(=O)C1CCN(CCOc2ccc(Cc3ccccc3)cc2)CC1`, in the experiment with Mus musculus [1] (Mus musculus, Blood), at 10 mg/kg the inhibition in vivo was 91%. The half-inhibitory concentration (IC50) in experiment [2] is 0.11 µM; in the experiment filed under Homo sapiens it was 0.7 µM. In the experiment filed under Mus musculus [3], the ED90 was found to be 3 mg/kg.
With `OCC1CCN(CCOc2ccc(Cc3ccccc3)cc2)CC1`, the inhibition in vivo at 10 mg/kg with Mus musculus [1] (Mus musculus, Blood) is 85%. Moreover, the results for the half-maximal inhibitory concentration (IC50) (in experiment [2]; in the experiment listed under Homo sapiens) were 0.052 µM and 0.58 µM, respectively.
Regarding `O=C(O)C1CCN(CCOc2ccc(Cc3ccccc3)cc2)CC1`, the inhibition in vivo at 10 mg/kg in the experiment on Mus musculus [1] turned out to be 80%. In addition, the IC50 was determined as 0.28 µM in experiment [2] and 0.29 µM in the experiment listed under Homo sapiens.
By Inhibition is commonly meant the drop in the measured response relative to a control, in per cent. The molecule `COC(=O)CC1CC2CC1CN2CCOc1ccc(Cc2ccccc2)cc1` (stereo in doubt; 27) returned an Inhibition with Mus musculus [1] (10 mg/kg) of 70%.
Consider `c1ccc(Cc2ccc(OCCN3CCCCC3)cc2)cc1`, for which at 10 mg/kg the inhibition in vivo in the experiment with Mus musculus [1] (Mus musculus, Blood) was 8%.
In the experiment on Mus musculus [1] (Mus musculus, Blood), `OC1CCN(CCOc2ccc(Cc3ccccc3)cc2)C1` (configuration not stated) had an inhibition in vivo at 10 mg/kg of 50%. The IC50 in experiment [2] worked out at 0.03 µM.
In turn, `CNC(=O)C1CCN(CCOc2ccc(Cc3ccccc3)cc2)CC1` had an inhibition in vivo at 10 mg/kg in the experiment on Mus musculus [1] (Mus musculus, Blood) of 92%. The molecule also registered an IC50 in the experiment listed under Homo sapiens of 0.13 µM.
Take `N#CC1CCN(CCOc2ccc(Cc3ccccc3)cc2)CC1`: in the experiment with Mus musculus [1] (Mus musculus, Blood), the inhibition in vivo at 10 mg/kg amounted to 56%.
In the experiment on Mus musculus [1] (Mus musculus, Blood), `NC(=O)C1CCN(CCOc2ccc(Cc3ccccc3)cc2)C1` (configuration not stated) had an inhibition in vivo at 10 mg/kg of 60%. The IC50 in the experiment filed under Homo sapiens stood at 0.36 µM.
Regarding `c1ccc(Cc2ccc(OCCN3CCC(c4nnn[nH]4)CC3)cc2)cc1`, in the experiment listed under Mus musculus [3], the ED90 stood at 3 mg/kg.
In the experiment listed under Homo sapiens, `NC1CCN(CCOc2ccc(Cc3ccccc3)cc2)C1` (configuration not stated) had an IC50 of 0.29 µM.
